# US9573920B2, “Compound, medicine, anti-inflammatory, cosmetic, food and drink, and method for producing compound” (Amino Up Chemical Co., Ltd., priority 2013, dated 2017)
# Legend:
# CINC-2α/β = assay: cytokine/chemokine array (in vitro), CINC-2α/β; format: cell-based, rat; conditions: (+) IL-1β 1 nM, Pa5 20 μM
# Protocol: (§1) In like manner with Example 4, liver cells were isolated from male Wistar rats by a collagenase perfusion method. The isolated liver cells were suspended in a medium (similar to that in Example 4) at 1.2×10^6 cells/mL, seeded in 35 mm plastic dishes (similar to those in Example 4) (1 mL/dish), and cultured in an incubator with 5% CO2 at 37° C. After 5 hours, the medium was replaced with fresh WE free of any serum and hormone, and the cells were cultured overnight until before use of the cells for an experiment.
# (§2) On day 1 after the start of the culture, cells were subjected to replacement with fresh WE free of any serum and hormone, and IL-1β (similar to that in Example 4), and Pa5 extracted with methanol in Example 1 or Pa5′ extracted with methanol in Example 2 were added to the medium. The concentrations of IL-1β, Pa5, and Pa5′ in each medium were 1 nM, 20 μM, and 100 μM, respectively (Table 1). Then, the cells were cultured at 37° C., and the medium was collected 3 hours after the start of the culture. The collected medium was centrifuged for 1 minute at 5000 rpm to remove cellular debris, and the supernatant was used in an assay. The supernatant was preserved at −80° C. until performing the assay.
# (§3) The productions of the various inflammatory cytokines/chemokines were measured according to an accompanying protocol using Rat Cytokine Antibody Array (R&D Systems) (http://www.rndsystems.com/product_detail_objectname_ratcytokinearray.aspx) capable of detecting 29 kinds of cytokines/chemokines in Proteome Profiler® Antibody Array. In the measurement, 1 mL of the supernatant of the medium obtained as described above was used.
# (§4) In the above-described method, the 29 kinds of the cytokines/chemokines can be detected at once, and chemiluminescence on the filter of Proteome Profiler Antibody Array increases in proportion to the amount of each cytokine/chemokine. Thus, the chemiluminescence on the filter of Proteome Profiler Antibody Array was detected with LAS3000mini (GE Healthcare), subjected to densitometry analysis, and converted into a numeric value. The densitometry analysis was carried out with reference to http://www.hm6.aitai.ne.jp/˜maxcat/imageJ/technique.html#gels (the heading of “Analyzing Electrophoretic Gels”) using ImageJ software.
# sICAM-1 (CD54) = assay: cytokine/chemokine array (in vitro), sICAM-1; format: cell-based, rat; conditions: (+) IL-1β 1 nM, Pa5 20 μM
# Protocol: as §1, §2, §3, §4
# IL-17 = assay: cytokine/chemokine array (in vitro), IL-17; format: cell-based, rat; conditions: (+) IL-1β 1 nM, Pa5 20 μM
# Protocol: as §1, §2, §3, §4
# rat liver cells = assay: LDH activity of medium (cytotoxicity); format: cell-based; conditions: IL-1β 1 nM plus Pa5, 8 hours
# Protocol: Further, lactate dehydrogenase (LDH) activity was measured to investigate the cytotoxicity of Pa5. The lactate dehydrogenase (LDH) activity of each medium was measured using LDH Cytotoxicity Detection Kits (Takara Bio Inc.). LDH is an enzyme existing in a cell, and therefore migrates into a medium due to cell damage. Each medium was collected 8 hours after the addition of IL-1β, and Pa5 or negletein, and was used for measuring the activity. Actually, each sample (50 μl of medium) and Solution C (50 μl) in the kit were mixed and left standing at room temperature for 30 minutes, 1 M hydrochloric acid (25 μl) was added to stop the reaction, and the absorbance of the resultant at 490 nm was measured and compared with a calibration curve using LDH of known concentration to determine the LDH activity. The LDH activity of the whole cells on one dish (that is, whole-cell extract) was considered to be a positive control (positive control in FIG. 3), and was regarded as 100%. The medium was removed from each dish containing the liver cells, the cells were washed three times with phosphate buffered saline (PBS), then ultrasonically broken, and centrifuged at 10000×g for 3 minutes to then obtain a supernatant, which was used as a whole-cell extract, and the LDH activity of the cells was measured.
# MIG (CXCL9) = assay: cytokine/chemokine array (in vitro), MIG; format: cell-based, rat; conditions: (+) IL-1β 1 nM, Pa5 20 μM
# Protocol: as §1, §2, §3, §4
# [1] = test system: VEGF (VEGF-A/Vasculotropin); assay: cytokine/chemokine array (in vitro), VEGF; format: cell-based, rat; conditions: (+) IL-1β 1 nM, Pa5 20 μM
# Protocol: as §1, §2, §3, §4
# [2] = test system: nitrogen monoxide (NO) production due to IL-1β; assay: NO production inhibitory action in IL-1β-stimulated rat liver cells (Griess method); format: cell-based; conditions: IL-1β 1 nM, 8 hours
# Protocol: Liver cells were isolated from male Wistar rats (200 to 250 g, Charles River) by a collagenase perfusion method (collagenase: Wako Pure Chemicals). The isolated liver cells were suspended in a medium at 6×10^5 cells/mL, seeded in 35 mm plastic dishes (Falcon Plastic) (2 mL/dish), and cultured in an incubator with 5% CO2 at 37° C. Williams' Medium E (WE) containing 10% newborn calf serum, HEPES (5 mM), penicillin (100 U/mL), streptomycin (0.1 mg/mL), dexamethasone (10 nM), and insulin (10 nM) was used as the medium. After 5 hours, the medium was replaced with fresh WE free of any serum and hormone, and the cells were cultured overnight until before use of the cells for an experiment.
# On day 1 after the start of the culture, cells were subjected to replacement with fresh WE free of any serum and hormone, and recombinant rat IL-1β (purity of 97% or more) (PeproTech, Rocky Hill, N.J., USA), and Pa5 extracted with methanol in Example 1 or negletein in the comparative example were added to the medium. In each medium, the concentration of IL-1β was 1 nM, the concentrations of Pa5 were 5, 10, and 20 μM, and the concentrations of negletein were 10, 20, and 40 μM (FIG. 1). The amount of NO in each medium was measured 8 hours after the addition of IL-1β, and Pa5 or negletein by a Griess method (Green L C et al, Anal Biochem 1982; 126: 131-138). More specifically, the amount of nitrite (stable metabolite of NO) in each medium was measured.
# Liver cells originated from rats were cultured in like manner with Example 4. On day 1 after the start of the culture, the cells were subjected to replacement with fresh WE free of any serum and hormone, and recombinant rat IL-1β (similar to that in Example 4) and Pa9 extracted with methanol in Example 3 were added to the medium. In each medium, the concentration of IL-1β was 1 nM, and the concentrations of Pa9 were 10 μM, 50 μM, and 100 μM (FIG. 5). The amount of NO in each medium was measured 8 hours after the addition of IL-1β and Pa9 in like manner with Example 4.
# [3] = test system: various inflammatory cytokines/chemokines; assay: cytokine/chemokine arrays (in vitro), overall; format: cell-based; conditions: rat liver cells, IL-1β 1 nM, Pa5 20 μM, 3 hours
# Protocol: as §1, with “experiment. […]” for “experiment.”
# as §3, with “In the measurement, 1 mL of the supernatant of the medium obtained as described above was used.” left out
# In the above-described method, the 29 kinds of the cytokines/chemokines can be detected at once, and chemiluminescence on the filter of Proteome Profiler Antibody Array increases in proportion to the amount of each cytokine/chemokine. Thus, the chemiluminescence on the filter of Proteome Profiler Antibody Array was detected with LAS3000mini (GE Healthcare), subjected to densitometry analysis, and converted into a numeric value. […]
# Fractalkine (CX3CL1) = assay: cytokine/chemokine array (in vitro), Fractalkine; format: cell-based, rat; conditions: (+) IL-1β 1 nM, Pa5 20 μM
# Protocol: as §1, §2, §3, §4
# CINC-3 = assay: cytokine/chemokine array (in vitro), CINC-3; format: cell-based, rat; conditions: (+) IL-1β 1 nM, Pa5 20 μM
# Protocol: as §1, §2, §3, §4
# Thymus Chemokine (CXCL7) = assay: cytokine/chemokine array (in vitro), Thymus Chemokine; format: cell-based, rat; conditions: (+) IL-1β 1 nM, Pa5 20 μM
# Protocol: as §1, §2, §3, §4
structure (smiles),measurement,setting,value
"COc1cc2c(c(O)c1OC)OC(c1ccccc1)CC2=O (centres unmarked) [Pa5, 8-hydroxy-6,7-dimethoxyflavanone]",CINC-2α/β (%),"CINC-2α/β; 3 hours, (+) alone = 100.0",2.8%
same,"CINC-2α/β chemiluminescence densitometry, Average",CINC-2α/β; medium at 3 hours,170.2
same,"CINC-2α/β chemiluminescence densitometry, first value",CINC-2α/β; medium at 3 hours,209.7
same,"CINC-2α/β chemiluminescence densitometry, second value",CINC-2α/β; medium at 3 hours,130.6
same,sICAM-1 (CD54) (%),"sICAM-1 (CD54); 3 hours, (+) alone = 100.0",0.0%
same,"sICAM-1 (CD54) chemiluminescence densitometry, Average",sICAM-1 (CD54); medium at 3 hours,0.0
same,"sICAM-1 (CD54) chemiluminescence densitometry, first value",sICAM-1 (CD54); medium at 3 hours,0.0
same,"sICAM-1 (CD54) chemiluminescence densitometry, second value",sICAM-1 (CD54); medium at 3 hours,0.0
same,IL-17 (%),"IL-17; 3 hours, (+) alone = 100.0",0.0%
same,"IL-17 chemiluminescence densitometry, Average",IL-17; medium at 3 hours,0.0
same,"IL-17 chemiluminescence densitometry, first value",IL-17; medium at 3 hours,0.0
same,"IL-17 chemiluminescence densitometry, second value",IL-17; medium at 3 hours,0.0
same,LDH activity of medium,rat liver cells,equivalent to that in the case of adding IL-1β
same,cytotoxicity (from LDH activity),rat liver cells,no cytotoxicity
same,MIG (CXCL9) (%),"MIG (CXCL9); 3 hours, (+) alone = 100.0",0.0%
same,"MIG (CXCL9) chemiluminescence densitometry, Average",MIG (CXCL9); medium at 3 hours,0.0
same,"MIG (CXCL9) chemiluminescence densitometry, first value",MIG (CXCL9); medium at 3 hours,0.0
same,"MIG (CXCL9) chemiluminescence densitometry, second value",MIG (CXCL9); medium at 3 hours,0.0
same,VEGF (VEGF-A/Vasculotropin) (%),"[1]; 3 hours, (+) alone = 100.0",29.0%
same,"VEGF (VEGF-A/Vasculotropin) chemiluminescence densitometry, Average",[1]; medium at 3 hours,236.8
same,"VEGF (VEGF-A/Vasculotropin) chemiluminescence densitometry, first value",[1]; medium at 3 hours,241.4
same,"VEGF (VEGF-A/Vasculotropin) chemiluminescence densitometry, second value",[1]; medium at 3 hours,232.3
same,"degree of NO production inhibitory action, comparison at the same addition concentration",[2]; 10 μM,higher than that of negletein
same,IC50,"[2]; nitrite by Griess method, read-out: IC50 value (drug concentration at NO production of 50%)",9 µM
same,production of NO due to IL-1β,"[2]; Pa5 5, 10, 20 μM",dose-dependently inhibited
same,induction of various cytokines/chemokines,[3],strongly inhibit
same,Fractakine (CX3CL1) (%),"Fractalkine (CX3CL1); 3 hours, (+) alone = 100.0",0.0%
same,"Fractakine (CX3CL1) chemiluminescence densitometry, Average",Fractalkine (CX3CL1); medium at 3 hours,0.0
same,"Fractakine (CX3CL1) chemiluminescence densitometry, first value",Fractalkine (CX3CL1); medium at 3 hours,0.0
same,"Fractakine (CX3CL1) chemiluminescence densitometry, second value",Fractalkine (CX3CL1); medium at 3 hours,0.0
same,CINC-3 (%),"CINC-3; 3 hours, (+) alone = 100.0",0.6%
same,"CINC-3 chemiluminescence densitometry, Average",CINC-3; medium at 3 hours,17.1
same,"CINC-3 chemiluminescence densitometry, first value",CINC-3; medium at 3 hours,16.1
same,"CINC-3 chemiluminescence densitometry, second value",CINC-3; medium at 3 hours,18.1
same,Thymus Chemokine (CXCL7) (%),"Thymus Chemokine (CXCL7); 3 hours, (+) alone = 100.0",0.0%
same,"Thymus Chemokine (CXCL7) chemiluminescence densitometry, Average",Thymus Chemokine (CXCL7); medium at 3 hours,0.0
same,"Thymus Chemokine (CXCL7) chemiluminescence densitometry, first value",Thymus Chemokine (CXCL7); medium at 3 hours,0.0
same,"Thymus Chemokine (CXCL7) chemiluminescence densitometry, second value",Thymus Chemokine (CXCL7); medium at 3 hours,0.0
